Measurements taken from patent publication US20020068367A1, “Linker and method for solid phase combinatorial synthesis” (priority 2000, published 2002).

Experiments:
fluorescein-streptavidin = molecular target: T1, fluorescein-streptavidin (Streptomyces avidinii, UniProt P22629); experiment: Standard protein-binding assay: fluorescein-streptavidin binding to linker on streptavidin-coated 96-well plates; details: for Fluorescence emission detected (qualitative): linker and fluorescein-labeled protein present
T1 construct: purchased Calbiochem-Novabiochem Corp., La Jolla, Calif; 189734
T1 sequence (P22629 25-183): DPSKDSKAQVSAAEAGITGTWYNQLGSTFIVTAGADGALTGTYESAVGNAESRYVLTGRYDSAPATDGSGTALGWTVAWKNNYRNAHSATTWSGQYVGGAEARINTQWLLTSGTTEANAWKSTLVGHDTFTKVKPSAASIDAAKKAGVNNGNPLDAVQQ
From the text: (§1) Referring to the drawings, and particularly to FIG. 1, generic reactions illustrating two variations of the screening system of the present invention are shown. FIGS. 1a-1d illustrate the generic System 1 reaction wherein a compound comprised of a tether connecting biotin with a chemical compound containing a nitrophenyl group is applied to a streptavidin coated solid phase. The amount of fluorescein-protein complex (c), where the exemplary protein is fluorescein-anti-DNP antibody, bound to the biotin-tether-nitrophenyl complex is characterized by detecting the magnitude of fluorescence emission in each individual well at the completion of the reaction. Similarly, FIG. 1e-1h illustrates the generic System 2 reaction wherein a tether connects 2 biotin groups together and streptavidin is coated on the solid phase. As in the System 1 reaction, the amount of fluorescein-protein complex (g), where the exemplary protein is fluorescein-streptavidin, bound to the biotin-tether-biotin complex is characterized through the detection of fluorescence emissions in each individual well at the completion of the reaction.
In the quantification of the interaction between fluoresceinated-proteins and linkers is characterized by detecting the magnitude of fluorescence emissions in each individual well at the completion of standard protein-binding assay procedures.
(§2) A standard protein-binding assay comprises a multi-step process in which strepeavidin pre-treated 96-well plates are exposed to a solution containing linker followed by exposure to a solution containing fluorescein-labeled protein. The 96-well plates are coated with a commercially available streptavidin solution (cat #BPS00100; Xenopore Corp., Hawthorne, N.J.) and then pre-incubated with 300 μl PBS buffer for 10 minutes at room temperature. To complete the pre-incubation process, the PBS buffer is discarded and the plates are further washed five times with water. Once the plate is sufficiently washed, add to the wells 100 μl of pre-mixed binding buffer containing the desired linker, the preparation of which is as described above. After addition of the linker solution, the plate is incubated at 37° C. for one hour. Upon completion of incubation, the linker solution is discarded and the plate is washed with five changes of water. For the fifth step of the assay process, 100 μl of a premixed reaction solution containing 1 M Tris, 0.5 M NaCl and the fluorescein-labeled proteins are added to selected wells of the plate with bound linker. The fluorescein conjugated proteins, anti-dinitrophenyl antibody (rabbit IgG fraction, cat #A-6423) (anti-DNP) and streptavidin (cat #189734) are commercially available from Molecular Probes, Inc., Eugene, Oreg. and Calbiochem Inc., San Diego, Calif. Upon addition of the protein solutions, the plate is further incubated at 37° C. for one hour. Following the incubation period, the reacting solution in each well is discarded and the wells are washed with five changes of 1 M Tris or 30 changes of water. After this final washing step, 250 μl of elution buffer containing 0.5 mM NaOH, methanol and 20 mM EDTA is added to each well and the plate is read using a Spectra MAX Gemini fluorescein plate reader (Molecular Devices Corp., Sunnyvale, Calif.).
Using the standard protein-binding assay described above, linkers 1-7 are evaluated for their ability to bind fluorescein-streptavidin or fluorescein-anti-DNP. The detection of fluorescence emission beyond that of the control would indicate that the fluorescein labeled protein has bound to the corresponding linker. Lack of fluorescence emission would indicate that either the linker or the fluorescein-bound proteins are absent, or that an improper linker was used. This may be interpreted as meaning that the protein of interest, in this exemplary example streptavidin or anti-DNP, “recognizes” the particular library compound being used in the experiment. […]

[1] = test system: fluorescein-anti-DNP antibody (rabbit IgG fraction); experiment: Standard protein-binding assay: fluorescein-anti-DNP binding to linker on streptavidin-coated 96-well plates
From the text: as §1, §2
Using the standard protein-binding assay described above, linkers 1-7 are evaluated for their ability to bind fluorescein-streptavidin or fluorescein-anti-DNP. The detection of fluorescence emission beyond that of the control would indicate that the fluorescein labeled protein has bound to the corresponding linker. Lack of fluorescence emission would indicate that either the linker or the fluorescein-bound proteins are absent, or that an improper linker was used. This may be interpreted as meaning that the protein of interest, in this exemplary example streptavidin or anti-DNP, “recognizes” the particular library compound being used in the experiment. It is this “recognition” that constitutes the use of these plate libraries as “affinity probes”. While preliminary test results are reported for all of the tested linkers, particular emphasis will be on the data derived from testing of linkers 3 and 5. […]

## O=C(CCCCC1SCC2NC(=O)NC21)NCCCOCCOCCOCCCNC(=O)CCCCC1SCC2NC(=O)NC21 (stereo not shown) [Linker 1]
fluorescein-streptavidin
  Fluorescence emission detected (qualitative): No fluorescence emission was detected

## O=C(CCCCC1SCC2NC(=O)NC21)NCCCCCC(=O)NCCCOCCOCCOCCCNC(=O)COCC(=O)NCCCOCCOCCOCCCNC(=O)CCCCC1SCC2NC(=O)NC21 (stereo not shown) [Linker 4]
fluorescein-streptavidin; Linker 4 5 nmol, no streptavidin-fluorescein (control)
  Fluorescence emission: 122
fluorescein-streptavidin; Linker 4 5 nmol, streptavidin-fluorescein 100 pmol
  Fluorescence emission: 218
fluorescein-streptavidin
  Fluorescence emission detected (qualitative): Fluorescence emissions were detected

## O=C(CCCCCNC(=O)CCCCC1SCC2NC(=O)NC21)NCCCCCNC(=O)CCCCCNC(=O)CCCCC1SCC2NC(=O)NC21 (stereo not shown) [Linker 2]
fluorescein-streptavidin; Linker 2 62.5 nmol, no streptavidin-fluorescein (control)
  Fluorescence emission: 583
fluorescein-streptavidin; Linker 2 62.5 nmol, streptavidin-fluorescein 73.5 pmol
  Fluorescence emission: 652
fluorescein-streptavidin
  Fluorescence emission detected (qualitative): Fluorescence emissions were detected

## O=C(CCCCCNc1ccc([N+](=O)[O-])cc1[N+](=O)[O-])NCCCOCCOCCOCCCNC(=O)COCC(=O)NCCCOCCOCCOCCCNC(=O)CCCCC1SCC2NC(=O)NC21 (stereo not shown) [Linker 7]
fluorescein-streptavidin; Linker 7 5 nmol, no streptavidin-fluorescein (control)
  Fluorescence emission: 112
fluorescein-streptavidin; Linker 7 5 nmol, streptavidin-fluorescein 266 pmol
  Fluorescence emission: 208
fluorescein-streptavidin
  Fluorescence emission detected (qualitative): Fluorescence emissions were detected

## O=C(CCCCCNC(=O)CCCCC1SCC2NC(=O)NC21)NCCCCCNC(=O)CCCCCNc1ccc([N+](=O)[O-])cc1[N+](=O)[O-] (stereo not shown) [Linker 5]
[1]; 100-fold increase in linker 5 concentration
  Increase in fluorescence emission: 2.5 fold
[1]; [5] 50.0 nmol, fluorescein-anti-DNP 266 pmol
  Fluorescence emission: 197.62
[1]; [5] 100.0 nmol, fluorescein-anti-DNP 266 pmol
  Fluorescence emission: 176.22
[1]; [5] 200.0 nmol, fluorescein-anti-DNP 266 pmol
  Fluorescence emission: 172.66
[1]; [5] 300.0 nmol, fluorescein-anti-DNP 266 pmol
  Fluorescence emission: 180.98
[1]; [5] 400.0 nmol, fluorescein-anti-DNP 266 pmol
  Fluorescence emission: 225.98
[1]; [5] 500.0 nmol, fluorescein-anti-DNP 266 pmol
  Fluorescence emission: 224.27
[1]; [5] 1000.0 nmol, fluorescein-anti-DNP 266 pmol
  Fluorescence emission: 211.7
[1]; [5] 2000.0 nmol, fluorescein-anti-DNP 266 pmol
  Fluorescence emission: 351.7
[1]; [5] 3000.0 nmol, fluorescein-anti-DNP 266 pmol
  Fluorescence emission: 369.58
[1]; [5] 4000.0 nmol, fluorescein-anti-DNP 266 pmol
  Fluorescence emission: 516.83
[1]; [5] 5000.0 nmol, fluorescein-anti-DNP 266 pmol
  Fluorescence emission: 543.9
[1]; generic System 1
  Effect on binding capacity of fluorescein-anti-DNP: significantly enhances the binding capacity
[1]; linker 5 50 nmol, [α-DNP] 0 pmol (linker only)
  Fluorescence emission: 76.392
[1]; linker 5 50 nmol, [α-DNP] 2.6 pmol
  Fluorescence emission: 101.45
[1]; linker 5 50 nmol, [α-DNP] 5.3 pmol
  Fluorescence emission: 109.82
[1]; linker 5 50 nmol, [α-DNP] 10.0 pmol
  Fluorescence emission: 129.19
[1]; linker 5 50 nmol, [α-DNP] 16.0 pmol
  Fluorescence emission: 137.9
[1]; linker 5 50 nmol, [α-DNP] 21.0 pmol
  Fluorescence emission: 160.48
[1]; linker 5 50 nmol, [α-DNP] 27.0 pmol
  Fluorescence emission: 204.54
[1]; linker 5 50 nmol, [α-DNP] 53.0 pmol
  Fluorescence emission: 306.3
[1]; linker 5 50 nmol, [α-DNP] 106.0 pmol
  Fluorescence emission: 473.57
[1]; linker 5 50 nmol, [α-DNP] 159.0 pmol
  Fluorescence emission: 615.29
[1]; linker 5 50 nmol, [α-DNP] 212.0 pmol
  Fluorescence emission: 599.48
[1]; linker 5 50 nmol, [α-DNP] 266.0 pmol
  Fluorescence emission: 561.46
[1]; linker 5, 10-fold increase in fluorescein-anti-DNP concentration (5.3 to 53 pmol)
  Increase in fluorescence emission: approximately 3 fold

## NCCCCCNC(=O)CCCC[C@@H]1SC[C@@H]2NC(=O)N[C@@H]21 [Linker B-1596, reference compound]
fluorescein-streptavidin; pre-linker B-1596 50 nmol replacing linker 3, streptavidin-fluorescein 100 pmol
  Fluorescence emission: remained at a level similar to reactions where no linker was used
